Laboratory results reported in patent US20230288433A1, “DETECTION OF PHOSPHOINOSITIDES IN BLOOD CELLS AS A BIOMARKER FOR ALPHA SYNUCLEIN ASSOCIATED PATHOLOGIES AND A METHOD OF TREATMENT OF PARKINSON'S DISEASE AND THE RELATED NEURODEGENERATIONS” (YISSUM RESEARCH DEVELOPMENT COMPANY OF THE HEBREW …, priority 2021, published 2023).

How the values were obtained:
Format in all cases: cell-based
α-Syn = α-Syn expression by qPCR in Tet-on inducible SH-SY5Y cells; conditions: with versus without doxycycline for 72 hours
Experimental: FIGS. 4A-4J include micrographs and graphs showing that α-Syn effect to elongate axons and collaterals is mediated through PI4,5P2. (4A) PI4,5P2 levels determined by FACS, in HEK 293T cells, following 48 hours from cell transfection with α-Syn and/or Sj-1 phosphatase, as indicated. Mean±SD of two independent experiments, n>3,000 cells in each treatment; P<0.05, one-way ANOVA. (4B) PI4,5P2 levels determined by FACS in HEK 293T cells transfected with α-Syn and/or PIPKIγ as indicated. Mean±SD of two independent experiments, n>3,000 cells in each treatment; P<0.05, one-way ANOVA. […] GFP signal was captured by direct fluorescence. […] (4E) Total length of collaterals per axon (in μm); and (4F) PI4,5P2 levels within the axon and its collaterals (per axon area) quantified by Fiji program. […] Western blot showing mCherry Nir2 signal detected with anti Nir2 ab (Abcam). PI4,5P2 levels determined by FACS. […] PI4,5P2 levels determined by FACS. […] (4I) Quantitative PCR (qPCR) detection of α-Syn following its induced expression in SH-SYSY cells without and with the addition of doxycycline for 72 hours. α-Syn mRNA levels normalized to the levels of G6PD gene detected in the same sample. (4J) Quantitative detection of NIR2 expression by qPCR in these cells. […]

SH-SY5Y cells [1] = assay: PI4,5P2 levels by FACS in Tet-on inducible α-Syn SH-SY5Y cells
Experimental: Analysis was performed as previously described with some modifications. Cells were suspended and washed in clear DMEM; followed by 20 minutes fixation in 2% (v/w) paraformaldehyde at 4° C.; and permeabilization in 0.2% saponin in 1% BSA (w/v) for 15 minutes at 4° C. Cells were then incubated with anti α-Syn antibody (MJFR1, 1:2,000) and anti PI4,5P2 antibody (1:200, see Table 2) for 90 minutes at 4° C. with gentle rolling; washed and probed with the respective secondary antibody for 30 minutes at room temperature. FACS analysis in SK-mel2 cells was performed 7-14 days following viral transduction. During this time effective α-Syn knockdown was confirmed using rt-PCR and Western blotting. HEK 293T cells were analyzed by FACS forty-eight hours from transfection. Analyses were performed using BD LSRFortessa Cell Analyzer, equipped with 5 lasers (355, 405, 488, 561 and 640 nm) and the FLOWJO, LLC software. Mock-GFP, Sj-1 or PIPKIγ expression were directly detected at 488 nm based on a GFP-tag. […] A total of 2,000-4,000 gated cells were counted in each experiment unless indicated differently.
To test the mechanism through which α-Syn increases cellular PI4,5P2 levels, the inventors tested the potential involvement of Nir2-expression. […] 72 hours post DNA transfection, PI4,5P2 levels were determined by FACS. […] PI4,5P2 levels were determined by FACS following 3 days of incubation with doxycycline. […]

SH-SY5Y cells [2] = assay: 568-Tf endocytosis by ICC in Tet-on inducible α-Syn SH-SY5Y cells; conditions: doxycycline 72 hours; cells not induced set at 100%

SMILES: C[C@H]1c2cccc(O)c2C(=O)C2=C(O)[C@]3(O)C(=O)C(C(N)=O)=C(O)[C@@H](N(C)C)[C@@H]3[C@@H](O)[C@@H]21 [doxycycline]
- α-Syn levels of expression (α-Syn): ~25 folds
- PI4,5P2 signal (SH-SY5Y cells [1]; FACS after 3 days of doxycycline, shCntrl cells): ~146%
- PI4,5P2 levels (SH-SY5Y cells [1]; doxycycline 72 hours, cells not induced set at 100%): 151%
- internalization of 568-Tf (SH-SY5Y cells [2]): 133%
